One block for each compound: values may come before it. The source made the active and inactive calls.
Tests used:
Type in all cases: functional
[1] = viability loss in Mcl1-dependent HMC-1-8 cells, dose response, selectivity assay for A1 inhibitor project, cell-based, luminescence, dry powder (AID 504415); conditions: Homo sapiens
[2] = target: Ribosomal protein S6 kinase beta-1 (Homo sapiens, UniProt P23443);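 also: measured as one member of a kinome-wide profiling panel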
[3] = target: MAP kinase-activated protein kinase 3 (Homo sapiens, UniProt Q16644);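 also: value comes from a kinome-wide profiling panel in which MAPKAPK3 is one of the panel members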
MAP kinase-activated protein kinase 3, sequence (Q16644 whole entry): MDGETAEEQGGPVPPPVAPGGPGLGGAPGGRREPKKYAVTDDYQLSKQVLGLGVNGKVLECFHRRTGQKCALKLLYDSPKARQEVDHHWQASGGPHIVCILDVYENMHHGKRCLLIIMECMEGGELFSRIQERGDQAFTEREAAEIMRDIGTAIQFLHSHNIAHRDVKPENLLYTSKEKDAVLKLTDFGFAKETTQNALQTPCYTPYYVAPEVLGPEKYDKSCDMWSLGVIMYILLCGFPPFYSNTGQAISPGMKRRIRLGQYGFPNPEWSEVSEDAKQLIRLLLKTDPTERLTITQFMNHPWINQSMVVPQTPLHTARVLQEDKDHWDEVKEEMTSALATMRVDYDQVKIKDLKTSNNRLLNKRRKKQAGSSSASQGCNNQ

[4] = target: Serine/threonine-protein kinase pim-3 (Homo sapiens, UniProt Q86V86);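 also: value obtained as one member of a broad kinase panel profiling effort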
[5] = target: Megakaryocyte-associated tyrosine-protein kinase (Homo sapiens, UniProt P42679);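 also: affinity measured as one member of a kinase panel (Navigating the Kinome) against MATK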
Aurora kinase B = Aurora kinase B (Homo sapiens, UniProt Q96GD4)
[6] = target: Dual specificity tyrosine-phosphorylation-regulated kinase 1A (Homo sapiens, UniProt Q13627);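 also: measured against DYRK1A as one member of a broad kinome profiling panel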
[7] = target: T1, Orexin/Hypocretin receptor type 1 (Homo sapiens, UniProt O43613); assay: Homogeneous Time Resolved Fluorescence (HTRF)-based cell-based high throughput dose response assay for antagonists of the orexin 1 receptor (OX1R; HCRTR1). [Related pubchem assays (depositor defined):AID434989, AID435008, AID463079, AID485270, AID492963, AID492964, AID492965, AID493232, AID504717, AID504718]
T1 sequence (O43613 whole entry): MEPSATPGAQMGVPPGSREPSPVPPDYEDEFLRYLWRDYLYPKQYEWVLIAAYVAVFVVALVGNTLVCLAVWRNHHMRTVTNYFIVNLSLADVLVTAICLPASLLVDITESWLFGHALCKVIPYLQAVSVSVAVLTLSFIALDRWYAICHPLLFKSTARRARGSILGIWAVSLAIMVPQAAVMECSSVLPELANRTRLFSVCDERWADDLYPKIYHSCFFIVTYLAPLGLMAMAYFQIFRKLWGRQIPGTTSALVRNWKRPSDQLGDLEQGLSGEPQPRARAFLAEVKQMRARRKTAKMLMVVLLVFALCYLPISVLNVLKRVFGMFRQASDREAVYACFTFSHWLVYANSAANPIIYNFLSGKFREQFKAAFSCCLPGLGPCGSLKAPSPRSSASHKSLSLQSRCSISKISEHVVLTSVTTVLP

[8] = target: Photoreceptor-specific nuclear receptor (Homo sapiens, UniProt Q9Y5X4); assay: NR2E3 inverse agonists, dose response, biochemical, TR-FRET (AID 463256)
Orexin receptor type 2 [9] = target: T2, Orexin receptor type 2 (Homo sapiens, UniProt O43614); assay: Counterscreen assay for antagonists of the orexin 1 receptor (OX1R; HCRTR1): Fluorescence-based cell-based dose response assay for antagonists of the orexin 2 receptor (OX2R; HCRTR2), run by assay provider.
T2 sequence (O43614 whole entry): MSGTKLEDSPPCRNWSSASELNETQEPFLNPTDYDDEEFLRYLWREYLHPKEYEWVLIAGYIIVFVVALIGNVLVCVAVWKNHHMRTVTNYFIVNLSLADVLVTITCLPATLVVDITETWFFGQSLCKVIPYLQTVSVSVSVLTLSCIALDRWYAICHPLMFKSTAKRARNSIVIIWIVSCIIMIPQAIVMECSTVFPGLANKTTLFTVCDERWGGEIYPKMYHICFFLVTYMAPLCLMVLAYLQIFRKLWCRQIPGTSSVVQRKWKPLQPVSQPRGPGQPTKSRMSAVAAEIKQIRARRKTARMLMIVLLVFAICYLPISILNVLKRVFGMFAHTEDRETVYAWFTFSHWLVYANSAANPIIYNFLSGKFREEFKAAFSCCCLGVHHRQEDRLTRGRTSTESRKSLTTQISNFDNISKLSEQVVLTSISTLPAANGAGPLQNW

[10] = (§1) Counterscreen for antagonists of the orexin 1 receptor (OX1R; HCRTR1): Fluorescence-based cell-based high throughput dose response assay to identify antagonists of the parental CHO cell line. [Related pubchem assays (depositor defined):AID434989, AID435008, AID463079, AID485270, AID492963, AID492964, AID492965, AID493232, AID504699, AID504701]
Orexin receptor type 2 [11] = target: T2, Orexin receptor type 2; assay: Counterscreen assay for antagonists of the orexin 1 receptor (OX1R; HCRTR1): Homogeneous Time Resolved Fluorescence (HTRF)-based cell-based dose response assay for antagonists of the orexin 2 receptor (OX2R; HCRTR2), run by assay provider.
CHO-K1 = assay: as §1, with “Homogeneous time resolved fluorescence (HTRF)-based” for “Fluorescence-based”, “cell-based” for “cell-based high throughput”, “CHO-K1” for “CHO”; conditions: Cricetulus griseus;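 also: potency for inhibition of ATP-stimulated IP1 production as antagonists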
[12] = target: Peroxisome proliferator-activated receptor gamma/Nuclear receptor corepressor 2 (Homo sapiens, UniProt P37231+Q9Y618); assay: Counterscreen for NR2E3 inverse agonists: TR-FRET-based biochemical high throughput dose response assay to identify inverse agonists of the interaction between peroxisome proliferator-activated receptor gamma (PPARg) and nuclear receptor co-repressor 2 (NCOR2).
Peroxisome proliferator-activated receptor gamma/Nuclear receptor corepressor 2, sequence (P37231 whole entry): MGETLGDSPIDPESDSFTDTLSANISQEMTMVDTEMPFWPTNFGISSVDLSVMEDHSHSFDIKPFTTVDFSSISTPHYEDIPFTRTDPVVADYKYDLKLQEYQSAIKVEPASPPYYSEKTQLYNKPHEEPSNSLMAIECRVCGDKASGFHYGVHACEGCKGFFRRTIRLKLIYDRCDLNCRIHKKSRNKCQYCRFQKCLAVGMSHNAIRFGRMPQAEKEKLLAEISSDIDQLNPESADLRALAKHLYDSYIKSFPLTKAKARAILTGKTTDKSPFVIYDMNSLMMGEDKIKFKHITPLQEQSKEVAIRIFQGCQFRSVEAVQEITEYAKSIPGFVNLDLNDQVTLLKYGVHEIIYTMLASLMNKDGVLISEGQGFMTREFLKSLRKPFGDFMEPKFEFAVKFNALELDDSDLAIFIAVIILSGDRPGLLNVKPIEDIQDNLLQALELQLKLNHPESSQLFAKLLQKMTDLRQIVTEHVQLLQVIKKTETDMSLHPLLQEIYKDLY
Peroxisome proliferator-activated receptor gamma/Nuclear receptor corepressor 2, sequence (Q9Y618 whole entry): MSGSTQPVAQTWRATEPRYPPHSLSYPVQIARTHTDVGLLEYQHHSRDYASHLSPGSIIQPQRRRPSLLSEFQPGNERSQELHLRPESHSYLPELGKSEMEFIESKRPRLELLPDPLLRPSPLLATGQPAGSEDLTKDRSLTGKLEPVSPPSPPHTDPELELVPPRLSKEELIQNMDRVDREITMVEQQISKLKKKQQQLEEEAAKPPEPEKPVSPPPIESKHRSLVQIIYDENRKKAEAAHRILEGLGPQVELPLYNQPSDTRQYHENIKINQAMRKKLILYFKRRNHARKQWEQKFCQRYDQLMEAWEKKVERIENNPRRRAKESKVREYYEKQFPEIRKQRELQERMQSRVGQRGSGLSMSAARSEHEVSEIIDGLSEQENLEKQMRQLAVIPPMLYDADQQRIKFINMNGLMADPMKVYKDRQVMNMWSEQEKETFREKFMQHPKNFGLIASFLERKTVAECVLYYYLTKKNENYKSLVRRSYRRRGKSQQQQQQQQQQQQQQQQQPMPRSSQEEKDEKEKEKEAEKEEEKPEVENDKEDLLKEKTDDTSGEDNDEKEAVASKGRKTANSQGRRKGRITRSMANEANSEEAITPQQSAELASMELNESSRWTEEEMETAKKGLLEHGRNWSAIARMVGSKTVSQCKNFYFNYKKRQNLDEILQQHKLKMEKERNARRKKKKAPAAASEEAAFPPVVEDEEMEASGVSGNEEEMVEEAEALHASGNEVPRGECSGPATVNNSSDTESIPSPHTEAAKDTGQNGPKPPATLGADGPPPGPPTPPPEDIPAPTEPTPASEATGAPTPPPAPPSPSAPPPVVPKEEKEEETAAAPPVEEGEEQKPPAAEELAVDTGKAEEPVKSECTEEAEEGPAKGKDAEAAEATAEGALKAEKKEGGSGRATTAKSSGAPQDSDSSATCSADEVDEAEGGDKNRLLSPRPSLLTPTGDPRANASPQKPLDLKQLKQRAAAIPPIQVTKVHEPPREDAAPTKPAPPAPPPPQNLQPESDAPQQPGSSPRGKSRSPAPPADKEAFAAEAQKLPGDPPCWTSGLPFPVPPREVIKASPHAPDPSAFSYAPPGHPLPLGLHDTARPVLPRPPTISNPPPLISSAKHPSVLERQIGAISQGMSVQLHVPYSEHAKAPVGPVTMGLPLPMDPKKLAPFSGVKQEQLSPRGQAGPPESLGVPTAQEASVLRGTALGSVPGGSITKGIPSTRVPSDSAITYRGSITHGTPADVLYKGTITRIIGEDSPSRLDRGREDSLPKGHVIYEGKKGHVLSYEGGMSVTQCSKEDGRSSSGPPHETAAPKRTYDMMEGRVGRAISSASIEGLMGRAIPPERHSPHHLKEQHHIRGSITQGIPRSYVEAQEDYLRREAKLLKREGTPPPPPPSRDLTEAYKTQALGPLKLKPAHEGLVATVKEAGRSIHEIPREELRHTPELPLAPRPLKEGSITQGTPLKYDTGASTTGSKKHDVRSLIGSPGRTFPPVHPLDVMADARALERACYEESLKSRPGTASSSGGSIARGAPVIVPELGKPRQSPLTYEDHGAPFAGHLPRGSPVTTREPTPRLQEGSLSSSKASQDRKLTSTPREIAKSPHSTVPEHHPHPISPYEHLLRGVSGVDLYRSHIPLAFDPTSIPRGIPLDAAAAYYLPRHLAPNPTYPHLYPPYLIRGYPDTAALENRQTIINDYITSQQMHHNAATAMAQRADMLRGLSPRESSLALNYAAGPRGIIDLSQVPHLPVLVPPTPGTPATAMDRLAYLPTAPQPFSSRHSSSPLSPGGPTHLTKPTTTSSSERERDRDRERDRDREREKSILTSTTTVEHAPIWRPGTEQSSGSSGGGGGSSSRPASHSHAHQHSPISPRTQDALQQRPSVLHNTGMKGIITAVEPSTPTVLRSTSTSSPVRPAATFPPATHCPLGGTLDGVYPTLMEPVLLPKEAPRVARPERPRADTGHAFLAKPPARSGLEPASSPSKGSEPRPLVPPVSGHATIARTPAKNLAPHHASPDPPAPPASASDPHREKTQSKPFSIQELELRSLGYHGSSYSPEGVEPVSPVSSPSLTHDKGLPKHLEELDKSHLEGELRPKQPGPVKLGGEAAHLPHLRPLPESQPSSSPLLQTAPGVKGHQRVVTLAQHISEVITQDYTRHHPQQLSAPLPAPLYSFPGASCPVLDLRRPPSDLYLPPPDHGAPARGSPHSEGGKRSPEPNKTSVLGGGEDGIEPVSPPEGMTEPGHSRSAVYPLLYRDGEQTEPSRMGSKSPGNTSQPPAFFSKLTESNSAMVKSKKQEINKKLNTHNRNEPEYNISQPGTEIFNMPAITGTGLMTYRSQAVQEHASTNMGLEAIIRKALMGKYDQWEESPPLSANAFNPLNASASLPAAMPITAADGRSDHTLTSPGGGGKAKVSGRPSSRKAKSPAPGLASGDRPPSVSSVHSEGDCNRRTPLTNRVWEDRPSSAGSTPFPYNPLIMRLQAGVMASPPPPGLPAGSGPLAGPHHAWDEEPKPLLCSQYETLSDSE

[13] = target: T1, Orexin/Hypocretin receptor type 1; assay: Fluorescence-based cell-based high throughput dose response assay for antagonists of the orexin 1 receptor (OX1R; HCRTR1). [Related pubchem assays (depositor defined):AID434989, AID435008, AID463079, AID485270, AID492963, AID492964, AID492965, AID493232, AID504717, AID504718]

Ribosomal protein S6 kinase beta-1, sequence (P23443 whole entry): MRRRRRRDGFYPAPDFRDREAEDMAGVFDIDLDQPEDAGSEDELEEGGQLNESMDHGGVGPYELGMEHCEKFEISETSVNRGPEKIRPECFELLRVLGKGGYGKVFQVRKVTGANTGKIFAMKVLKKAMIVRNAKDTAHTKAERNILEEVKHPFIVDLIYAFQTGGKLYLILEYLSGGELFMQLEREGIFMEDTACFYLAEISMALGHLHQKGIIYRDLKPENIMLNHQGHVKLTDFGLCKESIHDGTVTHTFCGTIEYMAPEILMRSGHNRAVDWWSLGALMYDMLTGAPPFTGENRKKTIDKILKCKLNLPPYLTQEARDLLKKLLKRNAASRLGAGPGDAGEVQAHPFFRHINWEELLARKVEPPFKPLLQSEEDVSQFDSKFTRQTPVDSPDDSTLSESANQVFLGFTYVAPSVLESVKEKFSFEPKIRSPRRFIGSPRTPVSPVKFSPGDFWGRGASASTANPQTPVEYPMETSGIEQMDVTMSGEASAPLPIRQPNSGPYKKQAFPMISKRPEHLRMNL

SMILES: CCSc1c([N+](=O)[O-])c(=O)oc2ccccc12
AC50 [1]: 23.4 µM (active)

Ki [2]: 2 µM (active)
Ki [3]: 7.94 µM (active)
Ki [4]: 5.01 µM (active)
Ki [5]: 2 µM (active)
Ki (Aurora kinase B): 6.31 µM (active)
Ki [6]: 3.16 µM (active)
SMILES: Cc1c(F)c(N2CCC(N)C2)nc2[nH]cc(C(=O)O)c(=O)c12 (stereo not given)

SMILES: Cc1nc2ccc(NC(=O)c3oc4ccc(F)cc4c3C)cc2s1
IC50 [7]: 0.386 µM (active)
IC50 [8]: > 39.8 µM (not active)
IC50 (Orexin receptor type 2 [9]): > 88.8 µM (inactive)
IC50 [10]: > 49.7 µM (inactive)
IC50 (Orexin receptor type 2 [11]): > 50 µM (inactive)
IC50 (CHO-K1): > 66.2 µM (inactive)
IC50 [12]: 8.73 µM (active)
IC50 [13]: 1.76 µM (active)

From ChEMBL document CHEMBL1201862, “PubChem BioAssay data set” (2004)
